Results from patent publication US20250313960A1, “CHOLINE HYDROXIDE FOR SALT DI[…] RENEWABLE FEEDSTOCK PROCESS” (Ecolab USA Inc., priority 2024, published 2025).

What was measured:
[1] = all temperatures; compared with NH4Cl; FIG. 2, literature values or calculated from solubility data
Protocol: The effectiveness of the salt to dissolve in the aqueous phase was determined by its critical relative humidity (CRH) at various temperatures. CRH was defined by the ratio of the partial pressure of water in the solution (Pw) to the partial pressure of pure water (P*w) shown below.
The CRH of the salt at a specified temperature was calculated from thermodynamic parameters found in the equation:
Where CRH was the critical relative humidity, T was the temperature, ΔHs was the heat of solution at infinite dilution, R is the gas constant, and A, B, and C are solubility parameters obtained from solubility as a function of temperature of the salt.
Data not available in the literature was experimentally performed in triplicate by an enthalpy experiment and a solubility experiment.
The enthalpy experiment was conducted by recording changes in temperature as different amounts of the salt dissolved in a set volume of water located in a calorimeter. The enthalpy of solution was calculated for each of the different amount of salt used. The enthalpy data was then fitted and extrapolated to determine enthalpy of solution at an infinite dilution.
The CRH values at room temperature were found in literature or calculated from the solubility data following the below equations.

[2] = in water; all tested temperatures; compared with NH4Cl; FIG. 1, literature and experimental data
Protocol: The solubility experiment was conducted by adding different amounts of salt to a set amount of water in glass vials. The amount of water used was such that the salt was mostly insoluble at room temperature. The vials were then heated up until all salts were dissolved. Temperature was recorded as each vial cooled. The temperature at which crystallization began was noted.

Q: With `C[N+](C)(C)CCO.[Cl-]` [ChCl, choline chloride] as the compound, how does the “critical relative humidity (CRH)” value [1] read?
A: The value was “lower”.

Q: What about the “solubility as a function of temperature (mol salt/mol water)” value [2] of the same compound?
A: The value was “more soluble than NH4Cl”.
